For 15 compounds, IC50 results are on record in patent publication US10487068B2, “Pyridazine derivatives as RORc modulators” (Genentech, Inc., priority 2015, dated 2019).

This assay concerns the target T1, RORc ligand binding domain (Homo sapiens, UniProt P51449).
T1 sequence (P51449 269-508 limits assumed): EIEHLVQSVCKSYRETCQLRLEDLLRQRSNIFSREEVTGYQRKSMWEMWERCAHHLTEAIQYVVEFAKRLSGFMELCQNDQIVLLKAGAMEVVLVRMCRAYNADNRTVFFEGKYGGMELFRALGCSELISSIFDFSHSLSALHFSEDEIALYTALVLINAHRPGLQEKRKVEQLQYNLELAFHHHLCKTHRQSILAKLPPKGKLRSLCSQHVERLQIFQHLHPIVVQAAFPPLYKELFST
In words: In Vitro RORc Ligand Binding Assay. The following applies: RORc IC50, radioligand 25-[3H]hydroxycholesterol 6 nM; 0.6 ug/mL RORc receptor; 3 h at 25° C.

In general, IC50 refers to the concentration that gives 50% inhibition. A higher IC50 goes with a need for much substance. In turn, `CC1(C)[C@H]2CC[C@]1(c1cncc(-c3ncnn3CCO)n1)c1nnc(-c3c(F)cccc3F)cc12` [Example 145, 2-(5-(6-((5R,8S)-3-(2,6-difluorophenyl)-9,9-dimethyl-5,6,7,8-tetrahydro-5,8-methanocinnolin-8-yl)pyrazin-2-yl)-1H-1,2,4-triazol-1-yl)ethanol] had an IC50 of 0.0435 µM.

As for `CC1(C)[C@H]2CC[C@]1(c1cncc(-c3nnn[nH]3)n1)c1nnc(-c3c(F)cccc3F)cc12` [Example 146], the IC50 came to 0.0319 µM.

As for `CC1(C)[C@H]2CC[C@]1(c1cncc(C(=O)NC3(CO)COC3)n1)c1nnc(-c3c(F)cccc3F)cc12` [Example 147, 6-((5R,8S)-3-(2,6-difluorophenyl)-9,9-dimethyl-5,6,7,8-tetrahydro-5,8-methanocinnolin-8-yl)-N-(3-(hydroxymethyl)oxetan-3-yl)pyrazine-2-carboxamide], the IC50 is 0.0506 µM.

`CC1(C)[C@H]2CC[C@]1(c1cncc(-c3n[nH]c(=O)o3)n1)c1nnc(-c3c(F)cccc3F)cc12` [Example 148, 5-(6-((5R,8S)-3-(2,6-difluorophenyl)-9,9-dimethyl-5,6,7,8-tetrahydro-5,8-methanocinnolin-8-yl)pyrazin-2-yl)-1,3,4-oxadiazol-2(3H)-one] showed an IC50 of 0.021 µM.

On to `Cc1nnc(-c2cccc([C@@]34CC[C@@H](c5cc(-c6c(F)cccc6F)nnc53)C4(C)C)n2)[nH]1` [Example 149], for which the IC50 was 0.024 µM.

In turn, `CC1(C)[C@H]2CC[C@]1(c1cccc(-c3nnc(CO)[nH]3)n1)c1nnc(-c3c(F)cccc3F)cc12` [Example 150, (5-(6-((5R,8S)-3-(2,6-difluorophenyl)-9,9-dimethyl-5,6,7,8-tetrahydro-5,8-methanocinnolin-8-yl)pyridin-2-yl)-4H-1,2,4-triazol-3-yl)methanol] yielded an IC50 of 0.0223 µM.

Regarding `CC1(C)[C@H]2CC[C@]1(c1ccnc(-n3cnnc3)n1)c1nnc(-c3c(F)cccc3F)cc12` [Example 151], the IC50 was 0.0136 µM.

In the case of `CC1(C)[C@H]2CC[C@]1(c1ccnc(N3C[C@H](O)[C@@H](O)C3)n1)c1nnc(-c3c(F)cccc3F)cc12` [Example 152], the IC50 was found to be 0.174 µM.

`CC1(C)[C@H]2CC[C@]1(c1ccnc(NC[C@H](O)CO)n1)c1nnc(-c3c(F)cccc3F)cc12` [Example 153]: the IC50 came out at 0.0157 µM.

Consider `CC1(C)[C@H]2CC[C@]1(c1ccnc(NC[C@@H](O)CO)n1)c1nnc(-c3c(F)cccc3F)cc12` [Example 154], for which the IC50 came to 0.0421 µM.

As to `CC1(C)[C@H]2CC[C@]1(c1ccnc(NCc3n[nH]c(=O)[nH]3)n1)c1nnc(-c3c(F)cccc3F)cc12` [Example 155], the IC50 was 0.0658 µM.

The compound `CC(C)S(=O)(=O)Nc1cccc([C@@]23CC[C@@H](c4cc(-c5c(F)cccc5F)nnc42)C3(C)C)n1` [Example 156, N-(6-((5R,8S)-3-(2,6-difluorophenyl)-9,9-dimethyl-5,6,7,8-tetrahydro-5,8-methanocinnolin-8-yl)pyridin-2-yl)propane-2-sulfonamide] displayed an IC50 of 0.0306 µM.

Consider `CC1(C)[C@H]2CC[C@]1(c1cccc(N3CCNC3=O)n1)c1nnc(-c3c(F)cccc3F)cc12` [Example 157, 1-(6-((5R,8S)-3-(2,6-difluorophenyl)-9,9-dimethyl-5,6,7,8-tetrahydro-5,8-methanocinnolin-8-yl)pyridin-2-yl)imidazolidin-2-one], for which the IC50 is 0.0051 µM.

Take `CC1(C)[C@H]2CC[C@]1(c1cccc(N3CCN(CCO)C3=O)n1)c1nnc(-c3c(F)cccc3F)cc12` [Example 158, 1-(6-((5R,8S)-3-(2,6-difluorophenyl)-9,9-dimethyl-5,6,7,8-tetrahydro-5,8-methanocinnolin-8-yl)pyridin-2-yl)-3-(2-hydroxyethyl)imidazolidin-2-one]: the concentration for half-maximal inhibition (IC50) worked out at 0.0261 µM.

`CC1(C)[C@H]2CC[C@]1(c1cnc(C#N)c(C#N)n1)c1nnc(-c3c(F)cccc3F)cc12` [Example 159, 5-((5R,8S)-3-(2,6-difluorophenyl)-9,9-dimethyl-5,6,7,8-tetrahydro-5,8-methanocinnolin-8-yl)pyrazine-2,3-dicarbonitrile] had an IC50 of 0.548 µM.
